Molecular target: T1, GLUT1 (Homo sapiens, UniProt P11166)
T1 sequence (P11166 1-492): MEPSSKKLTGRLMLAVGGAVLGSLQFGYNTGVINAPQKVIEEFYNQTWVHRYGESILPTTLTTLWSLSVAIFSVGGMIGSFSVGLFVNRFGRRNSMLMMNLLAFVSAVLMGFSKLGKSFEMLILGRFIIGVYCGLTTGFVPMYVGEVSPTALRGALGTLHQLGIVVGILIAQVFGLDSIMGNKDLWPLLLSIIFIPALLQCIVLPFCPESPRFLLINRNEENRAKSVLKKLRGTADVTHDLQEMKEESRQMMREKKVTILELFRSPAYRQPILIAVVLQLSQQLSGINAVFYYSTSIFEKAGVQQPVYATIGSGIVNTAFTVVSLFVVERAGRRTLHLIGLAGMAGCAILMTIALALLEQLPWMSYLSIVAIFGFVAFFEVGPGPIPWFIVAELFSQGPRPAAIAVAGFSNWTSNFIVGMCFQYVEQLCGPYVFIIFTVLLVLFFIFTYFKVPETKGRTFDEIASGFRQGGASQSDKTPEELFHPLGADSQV
Experiment: Indirect measurement of GLUT1 activity by quantification of intracellular ATP levels (glucose induced ATP increase)
Type: cell-based
Parameters: endogenous in cells; host or cells: DLD1 or CHO-K1
Details: read-out: IC50 regarding glucose induced ATP increase (GLUT1 inhibition)
Outline: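 DLD1 or CHO-K1 cells were starved overnight in glucose-free medium with 1% FCS, then combined with an oxidative phosphorylation inhibitor. GLUT1 activity was read as glucose-induced ATP increase, GLUT2 as fructose-induced. Intracellular ATP was quantified by CellTiter-Glo luminescence.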

Compound	IC50
COc1ccccc1Cn1nc(C)c(NC(=O)c2cc(C(F)(F)F)nc3cc(F)c(F)cc23)c1C [Example 1270]	2.89 µM
Cc1c(NC(=O)c2cc(C(F)(F)F)nc3ccc(Br)cc23)c(C(=O)O)nn1Cc1ccc(F)cc1 [Example 1271]	3.06 µM
Cc1nn(Cc2ccc(F)cc2)c(C)c1NC(=O)c1c(C)c(O)nc2ccccc12 [Example 1272]	3.18 µM
COc1cc(C(=O)Nc2c(C)nn(Cc3c(C)noc3C)c2C)c2ccccc2n1 [Example 1273]	3.37 µM
COc1ccccc1Cn1nc(C)c(NC(=O)c2cc(C(F)(F)F)nc3ccc(Br)cc23)c1C [Example 1274]	3.41 µM
Cc1nn(Cc2ccc(C(=O)O)cn2)c(C)c1NC(=O)c1cc(C(N)=O)nc2ccc(F)cc12 [Example 1275]	3.5 µM
Cc1nn(Cc2ccc(F)cc2)c(C)c1NC(=O)c1cc(C(F)(F)F)nc2cc(C(F)(F)F)ccc12 [Example 1276]	3.81 µM
Cc1cc(C(=O)Nc2c(C)nn(Cc3ccc(F)cc3)c2C)c2ccc(Br)cc2n1 [Example 1277]	3.85 µM
Cc1ccc2c(C(=O)Nc3c(C)nn(Cc4ccc(F)cc4)c3C)cc(C)nc2c1 [Example 1278]	3.91 µM
Cc1nn(CCN2CCN(C)CC2)c(C)c1NC(=O)c1cc(C(F)(F)F)nc2ccc(Br)cc12 [Example 1279]	3.93 µM
Cc1ccc2nc(C)cc(C(=O)Nc3c(C)nn(Cc4cc(F)ccc4F)c3C)c2c1 [Example 1281]	5.19 µM
Cc1nn(CCc2cccc(F)c2)c(C)c1NC(=O)c1cc(C(F)(F)F)nc2ccc(Br)cc12 [Example 1282]	6.02 µM
Cc1ccc2nc(C)cc(C(=O)Nc3c(C)nn(Cc4cccc(C#N)c4)c3C)c2c1 [Example 1283]	6.25 µM
COc1cc(C(=O)Nc2c(C)nn(Cc3cc(F)cc(F)c3)c2C)c2ccccc2n1 [Example 1284]	6.25 µM
Cc1ccc2nc(C)cc(C(=O)Nc3c(C)nn(Cc4ncccc4C)c3C)c2c1 [Example 1285]	6.25 µM
COc1cc(C(=O)Nc2c(C)nn(Cc3cccc(C#N)c3)c2C)c2ccccc2n1 [Example 1286]	6.25 µM
Cc1ccc2nc(C)cc(C(=O)Nc3c(C)nn(Cc4ccccc4OC(F)(F)F)c3C)c2c1 [Example 1287]	6.25 µM
Cc1nn(Cc2ccccc2OC(F)(F)F)c(C)c1NC(=O)c1cc(C(F)(F)F)nc2c(Cl)cc(Cl)cc12 [Example 1288]	6.25 µM
COc1cc(C(=O)Nc2c(C)nn(Cc3ccccc3OC(F)(F)F)c2C)c2ccccc2n1 [Example 1289]	6.25 µM
Cc1ccc2nc(C)cc(C(=O)Nc3c(C)nn(Cc4ccc(C(C)(C)C)cc4)c3C)c2c1 [Example 1290]	7.11 µM

Compound	IC50
Cc1nn(Cc2ccc(C(=O)NCCN(C)C)cn2)c(C)c1NC(=O)c1cc(C(F)(F)F)nc2ccc(Br)cc12 [Example 1292]	7.38 µM
COc1cc(Cn2nc(C)c(NC(=O)c3cc(C)nc4ccc(C)cc34)c2C)cc(OC)c1 [Example 1293]	7.79 µM
Cc1nn(Cc2ccc(F)cc2)c(C)c1NC(=O)c1cc(C(F)(F)F)nc2ccc(C(N)=O)cc12 [Example 1294]	8.12 µM
Cc1nn(Cc2cc(F)ccc2F)c(C)c1NC(=O)c1cc(C(F)(F)F)nc2c(Cl)cc(Cl)cc12 [Example 1295]	8.15 µM
Cc1ccc2nc(C)cc(C(=O)Nc3c(C)nn(Cc4cc(F)cc(F)c4)c3C)c2c1 [Example 1296]	11.1 µM
Cc1nn(Cc2cccc(C(F)(F)F)c2)c(C)c1NC(=O)c1cc(C(F)(F)F)nc2ccc(Br)cc12 [Example 1297]	11.1 µM
Cc1ccc2nc(C)cc(C(=O)Nc3c(C)nn(Cc4ccccc4C(F)(F)F)c3C)c2c1 [Example 1298]	11.1 µM
Cc1nn(Cc2ccccc2C(F)(F)F)c(C)c1NC(=O)c1cc(C(F)(F)F)nc2c(Cl)cc(Cl)cc12 [Example 1299]	11.1 µM
Cc1ccc2nc(C)cc(C(=O)Nc3c(C)nn(Cc4cccc(C(F)(F)F)c4)c3C)c2c1 [Example 1300]	11.1 µM
Cc1nn(Cc2ccccc2C(F)(F)F)c(C)c1NC(=O)c1cc(C(F)(F)F)nc2ccc(Br)cc12 [Example 1301]	11.1 µM
Cc1nn(Cc2ccc(C(F)(F)F)cc2)c(C)c1NC(=O)c1cc(C(F)(F)F)nc2ccc(Br)cc12 [Example 1302]	11.1 µM
COc1cc(C(=O)Nc2c(C)nn(Cc3cccc(C(F)(F)F)c3)c2C)c2ccccc2n1 [Example 1303]	11.1 µM
COc1cc(C(=O)Nc2c(C)nn(Cc3cc(F)ccc3F)c2C)c2ccccc2n1 [Example 1304]	11.1 µM
COc1cc(C(=O)Nc2c(C)nn(Cc3ccccc3C(F)(F)F)c2C)c2ccccc2n1 [Example 1305]	11.1 µM
Cc1nn(Cc2cccc(C(F)(F)F)c2)c(C)c1NC(=O)c1cc(C(F)(F)F)nc2c(Cl)cc(Cl)cc12 [Example 1306]	11.1 µM
Cc1nn(Cc2ccc(F)cc2)c(C)c1NC(=O)c1cc(C(F)(F)F)nc2c(C(F)(F)F)cccc12 [Example 1307]	14.3 µM
Cc1cc(C(=O)Nc2c(C)nn(Cc3ccc(F)cc3)c2C)c2cccc(C#N)c2n1 [Example 1308]	16.9 µM
Cc1cc(C(=O)Nc2c(C)nn(Cc3ccc(F)cc3)c2C)c2ccc(C#N)cc2n1 [Example 1309]	17.5 µM
Cc1c(NC(=O)c2cc(C(F)(F)F)nc3ccc(Br)cc23)c(C#N)nn1Cc1ccc(F)cc1 [Example 1338]	0.0263 µM

Second part, the compound after the results:

IC50	Compound
0.0722 µM	Cc1nn(Cc2cscn2)c(C)c1NC(=O)c1cc(C(N)=O)nc2ccccc12 [Example 1339]
0.297 µM	COc1ccc(CCn2nc(C)c(NC(=O)c3cc(OC)nc4ccccc34)c2C)cc1 [Example 1341]
0.0265 µM	Cc1nn(Cc2cnn(C)c2C)c(C)c1NC(=O)c1cc(C(F)(F)F)nc2ccc(Br)cc12 [Example 1342]
0.323 µM	Cc1nn(CCOc2ccc(C#N)cc2)c(C)c1NC(=O)c1cc(C(F)(F)F)nc2ccc(Br)cc12 [Example 1344]
0.0106 µM	COc1ccc(CCn2nc(C)c(NC(=O)c3cc(C(N)=O)nc4cc(F)c(Cl)cc34)c2C)cc1 [Example 1346]
3.95 µM	Cc1nn(CC2CNC(=O)O2)c(C)c1NC(=O)c1cc(C(N)=O)nc2ccccc12 (centres unmarked) [Example 1347]
0.188 µM	COc1cc(C(=O)Nc2c(C)nn(CCOc3ccc(C#N)cc3)c2C)c2ccccc2n1 [Example 1348]
0.0075 µM	Cc1nn(Cc2ccc(C#N)cc2F)c(C)c1NC(=O)c1cc(C(F)(F)F)nc2ccc(Br)cc12 [Example 1349]
0.0416 µM	COc1ccc(CCn2nc(C)c(NC(=O)c3cc(C(F)(F)F)nc4ccc(Br)cc34)c2C)cc1 [Example 1350]
0.134 µM	Cc1nn(Cc2cscn2)c(C)c1NC(=O)c1cc(C(F)(F)F)nc2ccc(Br)cc12 [Example 1351]
0.0351 µM	COc1cc(C(=O)Nc2c(C)nn(Cc3ccc(C#N)cc3F)c2C)c2ccccc2n1 [Example 1352]
0.0389 µM	COc1ccc(CCn2nc(C)c(NC(=O)c3cc(C(N)=O)nc4ccccc34)c2C)cc1 [Example 1353]
0.0489 µM	Cc1nc(Cn2nc(C)c(NC(=O)c3cc(C(F)(F)F)nc4ccc(Br)cc34)c2C)cs1 [Example 1354]
> 13 µM	CC(C)c1nn(Cc2ccc(F)cc2)c(C(C)C)c1NC(=O)c1cc(C(F)(F)F)nc2ccc(Br)cc12 [Example 1355]
> 13 µM	Cc1ccc2nc(C)cc(C(=O)Nc3c(C(C)C)nn(Cc4ccc(F)cc4)c3C(C)C)c2c1 [Example 1356]
> 13 µM	CC(C)c1nn(Cc2ccc(F)cc2)c(C(C)C)c1NC(=O)c1cc(C(F)(F)F)nc2cc(F)c(F)cc12 [Example 1357]
0.0043 µM	Cc1c(NC(=O)c2cc(C(F)(F)F)nc3ccc(Br)cc23)c(C(F)(F)F)nn1Cc1ccc(C#N)cc1F [Example 1358]
0.022 µM	COc1cc(C(=O)Nc2c(C(F)(F)F)nn(Cc3ccc(C#N)cc3F)c2C)c2ccccc2n1 [Example 1359]
0.167 µM	Cc1c(NC(=O)c2cc(C(F)(F)F)nc3ccc(Br)cc23)c(C(F)(F)F)nn1Cc1ccncc1 [Example 1365]
0.0381 µM	COc1cc(C(=O)Nc2c(C(F)(F)F)nn(Cc3ccncc3)c2C)c2ccccc2n1 [Example 1366]
0.275 µM	Cc1c(NC(=O)c2cc(C(N)=O)nc3ccccc23)c(C(F)(F)F)nn1Cc1ccncc1 [Example 1367]
0.0293 µM	Cc1c(NC(=O)c2cc(C(N)=O)nc3cc(F)c(Cl)cc23)c(C(F)(F)F)nn1Cc1ccncc1 [Example 1368]
0.143 µM	Cc1nn(Cc2ccc(C(C)(C)C)cc2)c(C)c1NC(=O)c1cc(C(N)=O)nc2ccccc12 [Example 1369]
1.09 µM	Cc1c(NC(=O)c2cc(C(N)=O)nc3ccccc23)c(C(F)(F)F)nn1Cc1ccc(C(C)(C)C)cc1 [Example 1370]
0.144 µM	Cc1c(NC(=O)c2cc(C(N)=O)nc3ccccc23)c(C(F)(F)F)nn1CCc1ccc(F)cc1 [Example 1371]
0.95 µM	COc1cc(C(=O)Nc2c(C(F)(F)F)nn(CCc3ccc(F)cc3)c2C)c2ccccc2n1 [Example 1372]
1.99 µM	Cc1c(NC(=O)c2cc(C(F)(F)F)nc3ccc(Br)cc23)c(C(F)(F)F)nn1CCc1ccc(F)cc1 [Example 1373]
0.0151 µM	COc1cc(C(=O)Nc2c(C)nn(C(C)c3ccc(F)cc3)c2C)c2ccccc2n1 (centres unmarked) [Example 1375]
0.0189 µM	COc1cc(C(=O)Nc2c(C(F)(F)F)nn(Cc3ccc(C#N)cc3)c2C)c2cc(F)ccc2n1 [Example 1376]
